Data as given in ChEMBL document CHEMBL3751824, “Design, synthesis, and docking studies of phenylpicolinamide derivatives bearing 1H-pyrrolo[2,3-b]pyridine moiety as c-Met inhibitors” (Bioorg Med Chem, 2016).
pIC50: −log10 of the molar value.

Key:
[1] = test system: MCF7; test: cells; conditions: Homo sapiens, MCF7, 72 h
Description: Cytotoxicity against human MCF7 cells after 72 hrs by MTT assay

[2] = test system: A549; test: Cytotoxicity against human A549 cells after 72 hrs by MTT assay; conditions: A549, 72 h
[3] = cells; conditions: Homo sapiens, PC-3, 72 h
Description: Cytotoxicity against human PC3 cells after 72 hrs by MTT assay

[4] = test system: HeLa; test: Cytotoxicity against human HeLa cells after 72 hrs by MTT assay
[5] = test system: HepG2; test: Cytotoxicity against human HepG2 cells after 72 hrs by MTT assay; conditions: HepG2, 72 h
[6] = target: Hepatocyte growth factor receptor (Homo sapiens, UniProt P08581); test: Inhibition of c-Met (unknown origin) by mobility shift assay
Chain of Hepatocyte growth factor receptor (P08581 whole entry): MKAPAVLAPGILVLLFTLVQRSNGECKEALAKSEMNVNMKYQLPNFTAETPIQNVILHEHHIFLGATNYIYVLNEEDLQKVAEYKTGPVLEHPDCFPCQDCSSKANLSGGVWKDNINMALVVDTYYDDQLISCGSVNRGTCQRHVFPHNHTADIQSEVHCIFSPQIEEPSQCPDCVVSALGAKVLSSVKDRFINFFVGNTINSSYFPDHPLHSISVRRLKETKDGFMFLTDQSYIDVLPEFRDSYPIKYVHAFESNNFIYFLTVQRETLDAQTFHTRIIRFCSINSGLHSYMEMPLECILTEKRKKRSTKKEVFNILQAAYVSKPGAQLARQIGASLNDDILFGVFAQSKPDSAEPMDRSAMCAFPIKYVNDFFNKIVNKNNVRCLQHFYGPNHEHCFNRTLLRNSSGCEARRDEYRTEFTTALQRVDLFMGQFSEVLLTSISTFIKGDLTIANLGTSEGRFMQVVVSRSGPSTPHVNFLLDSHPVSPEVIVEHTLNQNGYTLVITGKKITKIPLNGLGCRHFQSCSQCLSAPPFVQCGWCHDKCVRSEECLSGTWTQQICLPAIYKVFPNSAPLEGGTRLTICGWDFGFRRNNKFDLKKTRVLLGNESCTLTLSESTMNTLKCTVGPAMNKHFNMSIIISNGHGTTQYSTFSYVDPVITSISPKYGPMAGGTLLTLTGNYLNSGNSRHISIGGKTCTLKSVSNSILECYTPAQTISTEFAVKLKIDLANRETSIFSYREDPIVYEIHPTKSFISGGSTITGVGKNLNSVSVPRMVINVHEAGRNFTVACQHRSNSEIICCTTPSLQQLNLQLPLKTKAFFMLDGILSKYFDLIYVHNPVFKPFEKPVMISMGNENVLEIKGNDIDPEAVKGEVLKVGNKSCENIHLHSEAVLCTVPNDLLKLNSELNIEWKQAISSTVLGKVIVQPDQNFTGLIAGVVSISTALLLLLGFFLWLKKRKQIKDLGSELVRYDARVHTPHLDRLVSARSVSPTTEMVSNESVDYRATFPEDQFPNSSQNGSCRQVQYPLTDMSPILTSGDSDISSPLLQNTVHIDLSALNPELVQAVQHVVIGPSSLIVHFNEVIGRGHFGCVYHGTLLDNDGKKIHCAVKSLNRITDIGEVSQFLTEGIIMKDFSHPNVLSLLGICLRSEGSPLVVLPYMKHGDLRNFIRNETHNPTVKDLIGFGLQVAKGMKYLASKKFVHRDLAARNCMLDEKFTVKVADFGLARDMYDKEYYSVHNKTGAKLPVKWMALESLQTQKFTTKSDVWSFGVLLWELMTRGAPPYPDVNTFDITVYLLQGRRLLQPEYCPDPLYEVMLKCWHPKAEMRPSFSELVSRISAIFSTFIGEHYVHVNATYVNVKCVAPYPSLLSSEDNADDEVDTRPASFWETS

pIC50 [1]	pIC50 [3]	pIC50 [6]	Compound	pIC50 [2]	pIC50 [4]	pIC50 [5]
5.43	5.49	–	O=C(Nc1ccc(Oc2ccnc3[nH]ccc23)cc1)c1cc(-c2ccccc2)ccn1	5.53	–	–
5.04	7.70	–	COc1ccc(-c2ccnc(C(=O)Nc3ccc(Oc4ccnc5[nH]ccc45)c(F)c3)c2)cc1	5.98	5.23	4.88
5.13	5.26	–	Cc1cccc(-c2ccnc(C(=O)Nc3ccc(Oc4ccnc5[nH]ccc45)cc3)c2)c1	5.15	–	–
< 5.00	< 5.00	–	Cc1ccc(-c2ccc(C(=O)Nc3ccc(Oc4ccnc5[nH]ccc45)cc3)nc2)cc1	< 5.00	–	–
5.09	5.02	–	COc1ccc(-c2ccnc(C(=O)Nc3ccc(Oc4ccnc5[nH]ccc45)cc3)c2)cc1	5.16	5.12	4.93
< 5.00	4.60	–	O=C(Nc1ccc(Oc2ccnc3[nH]ccc23)cc1)c1cc(-c2ccc(Cl)cc2)ccn1	5.37	–	–
5.07	5.40	–	Cc1ccc(-c2ccnc(C(=O)Nc3ccc(Oc4ccnc5[nH]ccc45)c(F)c3)c2)cc1	5.51	–	–
< 5.00	4.87	< 5.00	O=C(Nc1ccc(Oc2ccnc3[nH]ccc23)c(F)c1)c1ccc(-c2ccc(F)cc2)cn1	5.22	–	–
< 5.00	< 5.00	–	COc1ccc(-c2ccc(C(=O)Nc3ccc(Oc4ccnc5[nH]ccc45)cc3)nc2)cc1	< 5.00	–	–
5.07	5.36	< 5.00	O=C(Nc1ccc(Oc2ccnc3[nH]ccc23)c(F)c1)c1cc(-c2ccc(C(F)(F)F)cc2)ccn1	5.31	–	–
< 5.00	< 5.00	–	Cc1ccc(-c2ccnc(C(=O)Nc3ccc(Oc4ccnc5[nH]ccc45)cc3)c2)cc1	< 5.00	–	–
5.00	6.19	< 5.00	COc1ccc(-c2ccc(C(=O)Nc3ccc(Oc4ccnc5[nH]ccc45)c(F)c3)nc2)cc1	5.65	–	–
5.04	6.07	–	Cc1cccc(-c2ccnc(C(=O)Nc3ccc(Oc4ccnc5[nH]ccc45)c(F)c3)c2)c1	5.76	4.99	4.95
5.10	5.58	–	Cc1ccc(-c2ccc(C(=O)Nc3ccc(Oc4ccnc5[nH]ccc45)c(F)c3)nc2)cc1	5.64	–	–
5.13	5.53	–	CCc1ccc(-c2ccnc(C(=O)Nc3ccc(Oc4ccnc5[nH]ccc45)c(F)c3)c2)cc1	5.47	5.06	4.98
< 5.00	4.85	< 5.00	O=C(Nc1ccc(Oc2ccnc3[nH]ccc23)cc1)c1cc(-c2ccc(C(F)(F)F)cc2)ccn1	5.40	–	–
< 5.00	< 5.00	< 5.00	O=C(Nc1ccc(Oc2ccnc3[nH]ccc23)c(F)c1)c1cc(-c2ccccc2)ccn1	5.31	–	–
< 5.00	< 5.00	< 5.00	CCc1ccc(-c2ccc(C(=O)Nc3ccc(Oc4ccnc5[nH]ccc45)cc3)nc2)cc1	< 5.00	–	–
5.21	5.40	–	Cc1ccc(-c2ccnc(C(=O)Nc3ccc(Oc4ccnc5[nH]ccc45)c(F)c3)c2)c(C)c1	5.36	4.92	4.88
< 5.00	< 5.00	< 5.00	O=C(Nc1ccc(Oc2ccnc3[nH]ccc23)cc1)c1ccc(-c2ccc(Cl)cc2)cn1	< 5.00	–	–
< 5.00	5.52	–	O=C(Nc1ccc(Oc2ccnc3[nH]ccc23)c(F)c1)c1ccc(-c2ccc(Cl)cc2)cn1	5.00	–	–
5.02	6.15	–	O=C(Nc1ccc(Oc2ccnc3[nH]ccc23)c(F)c1)c1cc(-c2ccc(F)cc2)ccn1	5.96	–	–
< 5.00	5.33	–	O=C(Nc1ccc(Oc2ccnc3[nH]ccc23)c(F)c1)c1ccc(-c2ccc(F)cc2F)cn1	5.51	–	–
< 5.00	< 5.00	< 5.00	O=C(Nc1ccc(Oc2ccnc3[nH]ccc23)c(F)c1)c1cc(-c2ccc(F)cc2F)ccn1	< 5.00	–	–
5.36	6.12	< 5.00	O=C(Nc1ccc(Oc2ccnc3[nH]ccc23)c(F)c1)c1ccc(-c2ccccc2)cn1	5.90	–	–
< 5.00	< 5.00	< 5.00	O=C(Nc1ccc(Oc2ccnc3[nH]ccc23)cc1)c1ccc(-c2ccc(F)cc2F)cn1	< 5.00	–	–
